These results are taken from the NIST ThermoML archive (doi:10.1016/j.tca.2015.07.018).

For orientation: vapor or sublimation pressure means the equilibrium pressure above the liquid or solid.

The conditions of this series: for Triple point temperature: From the change of vapor pressure slope; for vapor or sublimation pressure: Crystal, Rate of evaporation.

Numbers after ± are expanded uncertainties.

Take `[Cl][Cu]` [copper monochloride]: the Triple point temperature runs as follows: (Crystal 1) 701 ± 6 K; (Crystal 2) 688 ± 6 K.

On to `[Cl-].[Cl-].[Cl-].[In+3]` [indium chloride], for which the “vapor or sublimation pressure” value (570 K) was 0.004417 ± 0.00044 kPa; the “vapor or sublimation pressure” value (580 K) stood at 0.007462 ± 0.00075 kPa; the “vapor or sublimation pressure” value (590 K) is on record as 0.01238 ± 0.0012 kPa; the “vapor or sublimation pressure” value (600 K) came to 0.02021 ± 0.002 kPa; the “vapor or sublimation pressure” value (610 K) amounted to 0.03245 ± 0.0032 kPa; the “vapor or sublimation pressure” value (620 K) was determined as 0.05132 ± 0.0051 kPa. Also, the “vapor or sublimation pressure” value was found to be 0.07998 ± 0.008 kPa (630 K) and 0.1229 ± 0.012 kPa (640 K).
